# Columns and labels:
# [1] = target: Serotonin 5-HT1A receptor (Homo sapiens (Human), UniProt P08908); assay: Competitive binding, 8-OH-DPAT radioligand
# Method: (§1) R-55 (which comprises a 3-hydroxyphenyl moiety) and the structurally related compounds N-108 (2-{[4-(2-ethoxyphenyl)piperazin-1-yl]methyl}quinazolin-4(3H)-one) and B-39 (7-chloro-2-((5,6-dihydro-4-(2-methoxyphenyl)pyridin-1(2H)-yl)methyl)quinazolin-4(3H)-one) were assayed for competitive binding to a variety of receptors, including D4.4 type dopamine receptor, in order to assess their specificity for D4.4 dopamine receptors.
# (§2) The receptors were expressed as human recombinant proteins in CHO cells, except for adrenergic α1 and α2 receptors which were expressed in Wistar rat brain and cerebral cortex cells, respectively, and melanocortin MC4 receptor which was expressed in human recombinant HEK-293 cells. Binding was determined using the following radioligands in the presence of various concentrations of the tested compound:
# 1.5 nM 8-OH-DPAT for serotonin 5-HT1A receptor, and
# (§3) The binding assays were performed in accordance with procedures described in the literature (Greengrass & Bremner, 1979; Boyajian & Leslie, 1987; Broadhurst, 1988; Lewis, 2001; Sutton, 1995; Dearry, 1990; Zhou, 1990; Grandy, 1989; Hayes, 1992; Sokoloff, 1990; Van Tol, 1991; Van Tol 1992; Sunahara, 1991; Weinshank, 1991; Schioth, 1996; Schioth 1997; Martin & Humphrey, 1994; May, 2003; Wolf & Schutz, 1997).
# [2] = target: CRF1 receptor (Homo sapiens (Human), UniProt P34998); assay: Competitive binding, (Tyr0)-CRF radioligand
# Method: as §1, §2
# 0.05 nM)(Tyr^0)-corticotropin releasing factor (CRF) for corticotropin releasing factor CRF1 receptor,
# as §3
# [3] = target: Dopamine D4.4 receptor (Homo sapiens (Human), UniProt P21917); assay: Competitive binding, spiperone radioligand
# Method: as §1, §2
# (§4) 0.16 nM, 0.7 nM and 1.2 nM spiperone, respectively, for dopamine D2S, D3 and D4.4 receptors,
# as §3
# [4] = target: Dopamine D2S receptor (Homo sapiens (Human), UniProt P14416); assay: Competitive binding, spiperone radioligand
# Method: as §1, §2, §4, §3
# [5] = target: Dopamine D3 receptor (Homo sapiens (Human), UniProt P35462); assay: Competitive binding, spiperone radioligand
# Method: as §1, §2, §4, §3
# [6] = target: Serotonin 5-HT2C receptor (Homo sapiens (Human), UniProt P28335); assay: Competitive binding, mesulergine radioligand
# Method: as §1, §2
# 1 nM mesulergine for serotonin 5-HT2C receptor.
# as §3
# [7] = target: Dopamine D1 receptor (Homo sapiens (Human), UniProt P21728); assay: Competitive binding, SCH-23390 radioligand
# Method: as §1, §2
# (§5) 1.4 nM and 2 nM SCH-23390, respectively, for dopamine D1 and D5 receptors,
# as §3
# [8] = target: Dopamine D5 receptor (Homo sapiens (Human), UniProt P21918); assay: Competitive binding, SCH-23390 radioligand
# Method: as §1, §2, §5, §3
# [9] = tested on: Adrenergic α2 receptor; assay: Competitive binding, rauwolscine radioligand; parameters: species or system Wistar rat
# Method: as §1, §2
# 0.7 nM rauwolscine for adrenergic α2 receptor,
# as §3
# [10] = target: Melanocortin MC4 receptor (Homo sapiens (Human), UniProt P32245); assay: Competitive binding, NDP-α-MSH radioligand
# Method: as §1, §2
# 0.02 nM NDP-α-MSH for melanocortin MC4 receptor,
# as §3
# [11] = tested on: Adrenergic α1 receptor; assay: Competitive binding, prazosin radioligand; parameters: species or system Wistar rat
# Method: as §1, §2
# 0.25 nM prazosin for adrenergic α1 receptor,
# as §3
# Dopamine D4.4 receptor, sequence (P21917 whole entry): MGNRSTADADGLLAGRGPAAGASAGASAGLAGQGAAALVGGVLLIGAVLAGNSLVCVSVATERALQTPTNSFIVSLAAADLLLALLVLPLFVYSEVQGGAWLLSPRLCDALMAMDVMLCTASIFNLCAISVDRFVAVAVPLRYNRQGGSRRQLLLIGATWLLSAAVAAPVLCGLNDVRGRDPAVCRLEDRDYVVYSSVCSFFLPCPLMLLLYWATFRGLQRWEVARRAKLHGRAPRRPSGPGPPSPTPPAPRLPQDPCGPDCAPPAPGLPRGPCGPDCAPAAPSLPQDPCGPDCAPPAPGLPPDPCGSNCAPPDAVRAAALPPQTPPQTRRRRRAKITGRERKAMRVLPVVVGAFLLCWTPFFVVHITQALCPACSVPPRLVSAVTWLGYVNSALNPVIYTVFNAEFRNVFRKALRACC
# Serotonin 5-HT2C receptor, sequence (P28335 33-458): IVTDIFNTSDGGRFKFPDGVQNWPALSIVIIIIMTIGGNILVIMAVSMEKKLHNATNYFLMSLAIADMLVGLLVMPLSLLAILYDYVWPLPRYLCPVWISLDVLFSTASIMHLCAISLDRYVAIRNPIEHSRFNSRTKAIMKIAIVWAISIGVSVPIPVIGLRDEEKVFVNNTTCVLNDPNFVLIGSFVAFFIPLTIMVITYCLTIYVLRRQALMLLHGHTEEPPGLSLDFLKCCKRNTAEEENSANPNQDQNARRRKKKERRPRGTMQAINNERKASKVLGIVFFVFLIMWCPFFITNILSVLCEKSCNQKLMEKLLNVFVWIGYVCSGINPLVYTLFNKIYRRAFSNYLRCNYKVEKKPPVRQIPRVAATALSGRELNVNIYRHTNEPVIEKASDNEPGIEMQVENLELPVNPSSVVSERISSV
# Dopamine D2S receptor, sequence (P14416 other isoform, or with tags, fused parts or gaps): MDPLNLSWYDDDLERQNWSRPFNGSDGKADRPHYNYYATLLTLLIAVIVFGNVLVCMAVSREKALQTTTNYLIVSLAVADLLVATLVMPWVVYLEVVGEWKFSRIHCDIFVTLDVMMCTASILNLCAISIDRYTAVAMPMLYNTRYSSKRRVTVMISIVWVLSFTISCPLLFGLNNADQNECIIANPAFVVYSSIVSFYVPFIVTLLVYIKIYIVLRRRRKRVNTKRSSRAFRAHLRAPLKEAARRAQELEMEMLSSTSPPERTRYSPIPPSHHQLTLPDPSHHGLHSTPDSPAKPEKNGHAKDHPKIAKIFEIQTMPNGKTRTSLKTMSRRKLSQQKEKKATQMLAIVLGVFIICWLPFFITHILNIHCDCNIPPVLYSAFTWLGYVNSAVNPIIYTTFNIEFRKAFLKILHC
# Melanocortin MC4 receptor, sequence (P32245 whole entry): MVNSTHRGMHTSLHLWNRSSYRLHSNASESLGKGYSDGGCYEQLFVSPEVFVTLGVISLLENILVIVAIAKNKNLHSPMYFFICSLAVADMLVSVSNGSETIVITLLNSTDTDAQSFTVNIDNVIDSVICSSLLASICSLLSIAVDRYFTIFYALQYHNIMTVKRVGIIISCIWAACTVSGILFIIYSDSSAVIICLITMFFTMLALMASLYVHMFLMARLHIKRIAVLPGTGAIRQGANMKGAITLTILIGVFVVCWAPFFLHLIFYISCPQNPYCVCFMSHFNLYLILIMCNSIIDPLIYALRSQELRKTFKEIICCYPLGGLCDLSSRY
# Serotonin 5-HT1A receptor, sequence (P08908 whole entry): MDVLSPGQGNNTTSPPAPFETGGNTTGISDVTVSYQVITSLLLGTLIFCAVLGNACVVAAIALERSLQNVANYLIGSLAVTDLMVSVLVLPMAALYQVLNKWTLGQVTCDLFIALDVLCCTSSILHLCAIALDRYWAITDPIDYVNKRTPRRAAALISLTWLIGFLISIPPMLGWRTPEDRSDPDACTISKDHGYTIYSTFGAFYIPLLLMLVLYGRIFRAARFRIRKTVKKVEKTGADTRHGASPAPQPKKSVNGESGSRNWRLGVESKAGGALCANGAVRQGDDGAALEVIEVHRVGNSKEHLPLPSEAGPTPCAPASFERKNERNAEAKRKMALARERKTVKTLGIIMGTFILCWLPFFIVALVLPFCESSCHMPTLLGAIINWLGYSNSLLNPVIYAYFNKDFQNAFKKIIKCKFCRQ
# Dopamine D1 receptor, sequence (P21728 whole entry): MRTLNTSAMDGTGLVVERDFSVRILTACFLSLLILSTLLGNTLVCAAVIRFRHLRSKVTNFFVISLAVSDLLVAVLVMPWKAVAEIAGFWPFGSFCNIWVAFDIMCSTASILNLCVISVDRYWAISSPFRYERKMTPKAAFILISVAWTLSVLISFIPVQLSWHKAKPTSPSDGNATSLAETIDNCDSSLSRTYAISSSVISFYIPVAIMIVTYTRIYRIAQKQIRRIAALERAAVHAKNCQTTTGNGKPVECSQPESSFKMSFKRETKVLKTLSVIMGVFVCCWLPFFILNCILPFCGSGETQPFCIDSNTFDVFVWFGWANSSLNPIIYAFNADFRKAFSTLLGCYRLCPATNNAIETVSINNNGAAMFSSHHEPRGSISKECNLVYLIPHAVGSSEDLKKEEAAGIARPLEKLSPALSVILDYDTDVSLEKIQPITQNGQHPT
# Dopamine D5 receptor, sequence (P21918 whole entry): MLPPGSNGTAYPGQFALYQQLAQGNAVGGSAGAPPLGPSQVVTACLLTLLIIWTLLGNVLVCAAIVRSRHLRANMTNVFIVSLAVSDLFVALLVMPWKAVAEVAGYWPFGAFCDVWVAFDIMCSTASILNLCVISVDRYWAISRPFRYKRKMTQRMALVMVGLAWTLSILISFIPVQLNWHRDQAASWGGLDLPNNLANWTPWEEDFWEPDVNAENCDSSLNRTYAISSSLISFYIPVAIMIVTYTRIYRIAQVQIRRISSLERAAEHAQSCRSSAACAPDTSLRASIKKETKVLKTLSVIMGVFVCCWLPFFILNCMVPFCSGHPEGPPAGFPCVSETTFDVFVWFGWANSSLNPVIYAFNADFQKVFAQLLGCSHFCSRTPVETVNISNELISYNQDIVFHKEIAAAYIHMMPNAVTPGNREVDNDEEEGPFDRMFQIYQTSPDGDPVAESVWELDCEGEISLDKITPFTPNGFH
# CRF1 receptor, sequence (P34998 24-415): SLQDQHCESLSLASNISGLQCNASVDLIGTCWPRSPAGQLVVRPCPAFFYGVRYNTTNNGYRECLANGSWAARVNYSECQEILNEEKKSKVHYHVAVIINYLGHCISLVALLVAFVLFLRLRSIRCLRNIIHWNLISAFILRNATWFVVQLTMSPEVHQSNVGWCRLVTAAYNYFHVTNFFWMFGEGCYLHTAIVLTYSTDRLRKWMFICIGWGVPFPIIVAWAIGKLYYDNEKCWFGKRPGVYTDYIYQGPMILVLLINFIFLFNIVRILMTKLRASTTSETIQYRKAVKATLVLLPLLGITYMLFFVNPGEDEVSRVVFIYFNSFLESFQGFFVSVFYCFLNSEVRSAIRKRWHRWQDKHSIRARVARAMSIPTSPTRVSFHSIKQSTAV
# Dopamine D3 receptor, sequence (P35462 whole entry): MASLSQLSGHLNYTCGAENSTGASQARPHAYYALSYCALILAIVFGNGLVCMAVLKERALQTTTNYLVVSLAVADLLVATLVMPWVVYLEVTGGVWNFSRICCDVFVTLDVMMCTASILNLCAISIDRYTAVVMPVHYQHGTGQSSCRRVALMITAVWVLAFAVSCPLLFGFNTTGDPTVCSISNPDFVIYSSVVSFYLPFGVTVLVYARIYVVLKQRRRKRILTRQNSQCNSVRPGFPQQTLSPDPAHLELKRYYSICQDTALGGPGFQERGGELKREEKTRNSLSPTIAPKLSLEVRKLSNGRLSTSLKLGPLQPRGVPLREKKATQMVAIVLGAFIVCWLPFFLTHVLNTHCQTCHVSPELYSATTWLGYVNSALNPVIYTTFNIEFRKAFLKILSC
structure (smiles),measurement,setting,value
"COc1ccccc1C1=CCN(Cc2nc3cc(Cl)ccc3c(=O)[nH]2)CC1 [Compound B-39, 7-chloro-2-((5,6-dihydro-4-(2-methoxyphenyl)pyridin-1(2H)-yl)methyl)quinazolin-4(3H)-one, reference compound]",Competitive binding (%) at 5 μM of tested compound,[1],89%
same,Competitive binding (%) at 5 μM of tested compound,[2],−5%
same,Competitive binding (%) at 5 μM of tested compound,"[3]; Dopamine D4.4 receptor, 5 μM",57%
same,binding affinity to the D4.4 receptor (in words),[3]; Table 8,high binding affinity
same,Competitive binding (%) at 5 μM of tested compound,[4],46%
same,Competitive binding (%) at 5 μM of tested compound,[5],32%
same,Competitive binding (%) at 5 μM of tested compound,[6],56%
same,Competitive binding (%) at 5 μM of tested compound,[7],4%
same,Competitive binding (%) at 5 μM of tested compound,[8],7%
same,Competitive binding (%) at 5 μM of tested compound,[9],72%
same,Competitive binding (%) at 5 μM of tested compound,[10],5%
same,Competitive binding (%) at 5 μM of tested compound,[11],54%

# Source: patent US9353067B2, “Heterocyclic compounds and uses thereof in the treatment of sexual disorders” (ATIR Holding S.A., priority 2011, dated 2016)
